Results taken from US6635432B1, “Peptide potentiation of acid-sensory ion channel in pain” (University of Iowa Research Foundation, priority 2000, dated 2003).
Where no end group is shown, it is not given here.

How the values were obtained:
Format in all cases: cell-based
ASICα [1] = target: T1, ASICα (Homo sapiens, UniProt P78348); experiment: Whole-cell patch-clamp of HEK-293T cells transfected with ASICα; set-up: expressed in transfected cells; conditions: HEK293 cells; amiloride 100 μM, FMRFamide 100 μM, pH 5
T1 sequence (P78348 1-528): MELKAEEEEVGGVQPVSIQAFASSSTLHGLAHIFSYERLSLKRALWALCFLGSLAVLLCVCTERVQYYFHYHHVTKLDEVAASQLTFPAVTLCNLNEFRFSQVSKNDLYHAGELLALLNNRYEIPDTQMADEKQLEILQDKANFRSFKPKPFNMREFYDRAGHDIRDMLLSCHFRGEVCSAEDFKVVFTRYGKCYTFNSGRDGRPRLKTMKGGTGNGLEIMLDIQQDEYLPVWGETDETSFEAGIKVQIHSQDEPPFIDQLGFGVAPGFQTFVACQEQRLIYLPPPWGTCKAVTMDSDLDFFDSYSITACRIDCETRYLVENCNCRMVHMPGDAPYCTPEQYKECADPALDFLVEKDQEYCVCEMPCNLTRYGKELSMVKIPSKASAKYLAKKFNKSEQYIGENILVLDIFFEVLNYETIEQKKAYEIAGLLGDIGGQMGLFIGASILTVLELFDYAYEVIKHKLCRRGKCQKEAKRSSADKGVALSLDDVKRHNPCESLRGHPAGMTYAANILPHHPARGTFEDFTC
Description: Human ASICα was cloned from brain polyA RNA. Rat ASICβ and mouse DRASIC were cloned from DRG RNA. […] Constructs were cloned into pMT3 for expression.
To identify transfected cells, pGreenlantern vector encoding green fluorescent protein (Gibco, Gaithersburg, Md.) was co-transfected with ASICα at a ratio of 1:6; transfected cells were identified using epifluorescence microscopy. Cells were studied 1-2 days after transfection.
(§1) The pipette solution contained, in mM: 120 KCl, 10 NaCl, 2 MgCl2, 5 EGTA, 10 HEPES. Perfusion of cells with different solutions was done by placing the appropriate outlet in front of the cell. Data were recorded with an AXOPATCH 200 (Axon Instruments, Foster City, Calif.) and stored on a digital tape recorder. Digitization was executed by acquiring data at 400 Hz using pClamp6 (Axon Instruments, Foster City, Calif.).

ASICα [2] = target: T1, ASICα; experiment: Two-electrode voltage-clamp of Xenopus oocytes expressing ASICα; set-up: expressed in transfected cells; host or cells: Xenopus laevis oocytes (nuclear injection of pMT3 plasmid); conditions: for effect on H+-gated ASICα current (inactivation, sustained current): pH 5, agents 50 μM (A18Famide 25 μM), added prior to and during acidification
Description: (§2) Human ASICα was cloned from brain polyA RNA. Rat ASICβ and mouse DRASIC were cloned from DRG RNA. Human BNC1 was cloned as described in Price et al. (1996)(Price, M. P., Snyder, P. M., and Welsh, M. J. (1996). Cloning and expression of a novel human brain Na^+ channel. J Biol Chem 271, 7879-7882). Constructs were cloned into pMT3 for expression.
(§3) Expression of the cDNA constructs in Xenopus oocytes was accomplished by injection of plasmid DNA into the nucleus of defolliculated albino Xenopus laevis oocytes (Nasco, Fort Atkinson, Wis.) as described previously (Adams, C. M., Snyder, P. M., Price, M. P., and Welsh, M. J. (1998). Protons activate brain Na^+ channel 1 by inducing a conformational change that exposes a residue associated with neurodegeneration. J Biol Chem 273, 30204-30207). Plasmids were injected at concentrations of 100 ng/μl for most experiments. Oocytes were incubated in modified Barth's solution at 18° C. for 12-26 hr after injection. Cells injected with DRASIC were allowed to incubate for 24-48 hr before analysis.
Whole-cell currents in oocytes were measured using a two-electrode voltage-clamp as previously described (Adams, et al. (1998)). Oocytes were bathed in frog Ringers solution containing, in mM: 116 NaCl, LiCl or KCl, 0.4 CaCl2, MgCl2, 5 4-(2-hydroxyethyl)-1-piperazineethanesulfonic acid (HEPES), pH 7.4. Acidic solutions were buffered with 5 mM 2-(4-morpholino)-ethanesulfonic acid (MES) instead of HEPES. Membrane voltage was held at −60 mV unless otherwise noted. Most peptides and naloxone were obtained from Sigma Chemical Co. (St. Louis, Mont.) and were added to the extracellular solution. The peptide FRRFamide was synthesized by Research Genetics (Huntsville, Ala.).

[3] = system: proton-gated currents in cultured rat DRG neurons; experiment: Whole-cell patch-clamp of proton-gated currents in cultured DRG neurons
Protocol: Rat DRG neurons were cultured from Norway rats as described in Benson et al. (1999)(Benson, C. J., Eckert, S. P., and McCleskey, E. W. (1999). Acid-evoked currents in cardiac sensory neurons: A possible mediator of myocardial ischemic sensation. Circulation Research 84, 921-928). Cells were allowed to incubate overnight at room temperature and studies were done 1 to 2 days after isolation.
as §1, with “During whole-cell patch-clamping of DRG neurons and transfected HEK-293T cells, the cells were bathed with an extracellular solution that contained, in mM: 128 NaCl, 5 MgCl2, 1.8 CaCl2, 5.4 KCl, 5.55 glucose, 20 HEPES, pH 7.5 or 5. The” for “The”
Whole-cell patch-clamp recordings were used to investigate the effect of FMRFamide on proton-gated currents in cultured rat DRG neurons. As previously reported (Akaike, N., and Ueno, S. (1994). Proton-induced current in neuronal cells. Prog Neurobiol 43, 73-83), acidification to pH 5 produced rapidly activating and inactivating currents in the sensory neurons of the DRG (FIGS. 1A-D). […] The presence of the neuropeptide immediately before acidification also altered inactivation (FIGS. 1C, 1D).

ASICβ = target: T2, ASICβ (Rattus norvegicus, UniProt P55926); experiment: Two-electrode voltage-clamp of Xenopus oocytes expressing ASICβ; conditions: pH 5, peptide 50 μM
T2 construct: expressed in transfected cells; host or cells: Xenopus laevis oocytes (nuclear injection of pMT3 plasmid)
T2 sequence (P55926 1-559 isoform P55926-3): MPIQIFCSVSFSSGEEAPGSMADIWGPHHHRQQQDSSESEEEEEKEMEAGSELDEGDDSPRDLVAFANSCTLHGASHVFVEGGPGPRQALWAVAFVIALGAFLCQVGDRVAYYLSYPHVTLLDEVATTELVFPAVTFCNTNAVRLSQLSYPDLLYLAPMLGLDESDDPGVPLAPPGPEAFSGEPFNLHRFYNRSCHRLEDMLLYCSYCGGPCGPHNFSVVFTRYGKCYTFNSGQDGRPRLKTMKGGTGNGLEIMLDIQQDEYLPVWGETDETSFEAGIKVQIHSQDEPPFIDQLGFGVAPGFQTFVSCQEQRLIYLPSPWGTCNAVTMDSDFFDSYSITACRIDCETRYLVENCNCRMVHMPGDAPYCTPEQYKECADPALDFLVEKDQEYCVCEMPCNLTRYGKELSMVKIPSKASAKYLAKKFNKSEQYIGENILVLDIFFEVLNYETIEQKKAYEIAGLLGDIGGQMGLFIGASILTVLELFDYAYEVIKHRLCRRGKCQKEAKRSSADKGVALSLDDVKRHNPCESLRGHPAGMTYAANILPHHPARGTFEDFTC
Description: as §2, with “expression. The validity of the constructs was confirmed by DNA sequencing.” for “expression.”
as §3
(§4) Whole-cell currents in oocytes were measured using a two-electrode voltage-clamp as previously described (Adams, et al. (1998)). […]

DRASIC = target: T3, DRASIC (Mus musculus, UniProt Q6X1Y6); experiment: Two-electrode voltage-clamp of Xenopus oocytes expressing DRASIC; conditions: neuropeptide FF 50 μM added prior to acidification
T3 construct: expressed in transfected cells; host or cells: Xenopus laevis oocytes (nuclear injection of pMT3 plasmid)
T3 sequence (Q6X1Y6 1-530): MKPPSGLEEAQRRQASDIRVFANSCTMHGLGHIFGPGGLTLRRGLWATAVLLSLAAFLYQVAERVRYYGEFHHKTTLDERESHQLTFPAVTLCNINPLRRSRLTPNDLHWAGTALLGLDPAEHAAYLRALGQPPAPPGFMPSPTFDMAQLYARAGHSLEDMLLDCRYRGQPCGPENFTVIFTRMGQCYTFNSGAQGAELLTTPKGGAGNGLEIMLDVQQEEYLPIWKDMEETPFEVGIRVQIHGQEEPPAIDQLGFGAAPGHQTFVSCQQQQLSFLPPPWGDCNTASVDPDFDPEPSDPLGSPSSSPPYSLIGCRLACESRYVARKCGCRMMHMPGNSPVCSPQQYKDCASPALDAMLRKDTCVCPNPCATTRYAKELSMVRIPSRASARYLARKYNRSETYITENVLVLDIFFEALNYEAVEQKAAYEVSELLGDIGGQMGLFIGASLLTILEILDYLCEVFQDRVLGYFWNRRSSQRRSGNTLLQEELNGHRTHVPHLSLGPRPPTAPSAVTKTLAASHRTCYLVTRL
Description: as §2, with “expression. The validity of the constructs was confirmed by DNA sequencing.” for “expression.”
as §3, §4

BNC1 = target: T4, BNC1 (Homo sapiens, UniProt Q16515); experiment: Two-electrode voltage-clamp of Xenopus oocytes expressing BNC1; conditions: pH 5
T4 construct: expressed in transfected cells; host or cells: Xenopus laevis oocytes (nuclear injection of pMT3 plasmid)
T4 sequence (Q16515 1-512): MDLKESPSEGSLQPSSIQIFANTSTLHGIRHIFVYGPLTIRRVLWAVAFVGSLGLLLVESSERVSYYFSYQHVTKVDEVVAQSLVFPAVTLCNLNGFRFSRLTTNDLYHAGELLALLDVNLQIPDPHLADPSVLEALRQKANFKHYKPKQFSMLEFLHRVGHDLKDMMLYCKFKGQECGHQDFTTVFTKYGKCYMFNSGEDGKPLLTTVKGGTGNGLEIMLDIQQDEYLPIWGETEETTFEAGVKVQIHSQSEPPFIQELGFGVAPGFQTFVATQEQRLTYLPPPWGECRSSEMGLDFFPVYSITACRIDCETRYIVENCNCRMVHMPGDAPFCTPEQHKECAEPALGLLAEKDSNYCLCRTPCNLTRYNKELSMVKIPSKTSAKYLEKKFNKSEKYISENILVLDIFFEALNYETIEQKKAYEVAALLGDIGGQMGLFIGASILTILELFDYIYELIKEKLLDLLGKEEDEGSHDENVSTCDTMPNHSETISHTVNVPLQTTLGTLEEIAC
Description: as §2, with “expression. The validity of the constructs was confirmed by DNA sequencing.” for “expression.”
as §3, §4

For N=C(N)NC(=O)c1nc(Cl)c(N)nc1N [amiloride], the “effect of amiloride on FMRFamide-induced sustained current” value (ASICα [1]) was “inhibited” and the “effect of amiloride on FMRFamide-induced sustained current” value (ASICα [2]; amiloride 1 mM, FMRFamide 50 μM, pH 5) was “inhibited”.

For CN1CC[C@]23c4c5ccc(O)c4O[C@H]2[C@@H](O)C=C[C@H]3[C@H]1C5 [morphine], the “mimicking of the FMRFamide effect on proton-gated current” value ([3]; morphine 50 μM) was “did not mimic it” and the “effect on H+-gated ASICα current (inactivation, sustained current)” value (from here on “effect on H+-gated ASICα current”) (ASICα [2]) was “neither morphine nor naloxone altered ASICα current”.

With C=CCN1CC[C@]23c4c5ccc(O)c4O[C@H]2C(=O)CC[C@@]3(O)[C@H]1C5 [naloxone] the “block of the FMRFamide effect on proton-gated current” value ([3]; naloxone 100 μM) was “did not block the effect of FMRFamide” and the “effect of naloxone on FMRFamide-induced ASICα sustained current” value (ASICα [2]; naloxone 500 μM applied before FMRFamide 50 μM, pH 5) was “neither morphine nor naloxone altered ASICα current”.

In the case of “A18Famide: mammalian FMRFamide-like peptide, terminates with the sequence PQRFamide (AGEGLNSQFWSLAAPQRF-NH2; UniProt O15130 93-110, looked up)”, the “effect on H+-gated ASICα current” value (ASICα [2]) is reported as “Neither A18Famide nor MERF altered ASICα current”.

“Phe-Leu-Phe-Gln-Pro-Gln-Arg-Phe-amide [neuropeptide FF]” was tested, and the “size of effects compared with FMRFamide” value ([3]; pH 5, 50 μM each) was “smaller than those generated by FMRFamide”, the “effect on inactivation of proton-gated current and sustained current” value ([3]; pH 5, FMRFamide 50-100 μM, neuropeptide FF 50 μM) was “altered inactivation of proton-gated DRF currents” and the “current generated by agent added alone” value ([3]; without acidification) was “generated no current on its own”. The “effect on H+-gated ASICβ current (inactivation, sustained current)” value (ASICβ) was “appeared unaffected”, the “effect on inactivation of H+-gated DRASIC currents” value (DRASIC) was “slowed the inactivation of H^+-gated DRASIC currents” and the “effect on acid-gated BNC1 currents” value (BNC1) was “appeared unaffected”. The “effect on H+-gated ASICα current” value (ASICα [2]) was “produced only minor effects on inactivation rate but no sustained current” and the “effect on H+-gated ASICα current” value (ASICα [2]; listed as Neuropeptide FF) was “subtle effects on ASICα currents, slowing inactivation but not generating appreciable sustained current”.

In the case of “metenkephalin-Arg-Phe (YGGFMRF; Met-enkephalin-Arg-Phe; UniProt P01210 261-267, looked up) [MERF]”, the “effect on H+-gated ASICα current” value (ASICα [2]) is reported as “Neither A18Famide nor MERF altered ASICα current”.
